Measured values from the OligoGym collection.
After the bases stand the sugars from the 5' end (letter, count) and the backbone: PS all phosphorothioate, else s phosphorothioate and o phosphodiester by linkage. Methylation of C is not given here. e = 2'-O-(2-methoxyethyl) (MOE); k = constrained ethyl (cEt); d = 2'-deoxy (DNA); m = 2'-O-methyl

Molecular target: HSD17B13
Conditions: ASO, HepaRG

Sequence | target mRNA inhibition (1 µM) [%] | other results
ATAGAGTCGGTCACCT (sugars kkdddddddddkekek, PS) | 56 | –
ATAGAGTTGCACCGTT (sugars kkdddddddddkekek, PS) | 45 | –
ATAGATCCTTTTTTGG (sugars k3 d10 k3, PS) | 6 | –
ATAGCAAGCCAACAGA (sugars kkdddddddddkekek, PS) | 23 | –
ATAGCTAAGTATACTT (sugars k3 d10 k3, PS) | 0 | –
ATAGGAGAGTCTTTCA (sugars k3 d10 k3, PS) | 77 | –
ATAGGCTAAAATGGTC (sugars k3 d10 k3, PS) | 61 | –
ATAGTAATCACAAGTA (sugars k3 d10 k3, PS) | 56 | –
ATAGTCCATGCAAAAG (sugars k3 d10 k3, PS) | 43 | –
ATAGTTATCTTCTCAC (sugars k3 d10 k3, PS) | 48 | –
ATATAACATGGCTGGC (sugars k3 d10 k3, PS) | 29 | –
ATATACATCAACTCCT (sugars k3 d10 k3, PS) | 43 | –
ATATACTAGGATTAGA (sugars k3 d10 k3, PS) | 33 | –
ATATACTGTCCCAGCA (sugars k3 d10 k3, PS) | 43 | –
ATATATACCTGTTGCC (sugars k3 d10 k3, PS) | 28 | –
ATATCCAGTAGGTGTG (sugars k3 d10 k3, PS) | 55 | –
ATATGGGATGAGGTAA (sugars k3 d10 k3, PS) | 37 | –
ATATTCTGTGGCATGG (sugars k3 d9 k3 e1, PS) | 58 | –
ATATTCTGTGGCATGG (sugars k3 d10 k3, PS) | 69 | –
ATATTGTTTAGCTGAT (sugars k3 d10 k3, PS) | 14 | –
ATCAAAATGGTGGCGA (sugars k3 d10 k3, PS) | 20 | –
ATCAAGACATTCTAGC (sugars kkdddddddddkekek, PS) | 30 | –
ATCATACCACATACCC (sugars k3 d10 k3, PS) | 45 | –
ATCATCGATGGAAGAA (sugars k3 d10 k3, PS) | 30 | –
ATCCAGTAGGTGTGTT (sugars k3 d10 k3, PS) | 41 | –

Sequence | target mRNA inhibition (1 µM) [%] | other results
ATCCATATTCCCTGAT (sugars k3 d10 k3, PS) | 26 | –
ATCCTACATGTAAGGT (sugars k3 d10 k3, PS) | 24 | –
ATCGATGGAAGAAGTG (sugars k3 d10 k3, PS) | 39 | –
ATCGGCTGGATATACT (sugars k3 d10 k3, PS) | 10 | –
ATCTAGAATTAAGGGC (sugars k3 d10 k3, PS) | 41 | –
ATCTAGCAACCTCTAT (sugars k3 d10 k3, PS) | 12 | –
ATCTATCAGACTTCTT (sugars k3 d1 m1 d8 k3, PS) | 34 | –
ATCTCTGGGACCAAGG (sugars kkdddddddddkekek, PS) | 65 | –
ATCTTAAGGATCATTG (sugars k3 d10 k3, PS) | 7 | –
ATCTUATAAGACTATA (sugars k3 d1 m1 d8 k3, PS) | 35 | –
ATGACATAGACATGTG (sugars k3 d10 k3, PS) | 23 | –
ATGATGTTCATGGCTT (sugars k3 d10 k3, PS) | 72 | –
ATGATTGAATTCACTA (sugars k3 d10 k3, PS) | 33 | –
ATGCAGCTATAGGTAG (sugars k3 d10 k3, PS) | 41 | –
ATGCATAAGAGATGAG (sugars k3 d10 k3, PS) | 30 | –
ATGCCAAGCTTTGTGT (sugars k3 d10 k3, PS) | 50 | –
ATGCTACTTGAACAGT (sugars k3 d9 k3 e1, PS) | 50 | –
ATGCTAGTAATTGCAT (sugars k3 d10 k3, PS) | 16 | –
ATGGAAACATGCTTGG (sugars k3 d10 k3, PS) | 48 | –
ATGGCTACAGATTGGA (sugars k3 d9 k3 e1, PS) | 65 | –
ATGGCTTAATTTTCGG (sugars k3 d10 k3, PS) | 33 | –
ATGTCCAGGTTGAGAT (sugars k3 d10 k3, PS) | 55 | –
ATGTTCATGGCTTTGC (sugars k3 d10 k3, PS) | 73 | –
ATGTTTATGTAAGCAC (sugars k3 d10 k3, PS) | 70 | –
ATTAACTACTTCACTA (sugars k3 d10 k3, PS) | 14 | –

Sequence | target mRNA inhibition (1 µM) [%] | other results
ATTACAACCTGGTTTC (sugars k3 d10 k3, PS) | 50 | –
ATTACAGCATCAAGAC (sugars k3 d10 k3, PS) | 63 | –
ATTATACTTTTCCGTC (sugars k3 d10 k3, PS) | 75 | target mRNA inhibition (0.02 µM): 12%; target mRNA inhibition (0.078 µM): 0%; target mRNA inhibition (0.313 µM): 47%; target mRNA inhibition (1.25 µM): 75%; target mRNA inhibition (5 µM): 84%
ATTATTATGTGATTGA (sugars k3 d10 k3, PS) | 39 | –
ATTCATAAACATAGGC (sugars k3 d10 k3, PS) | 36 | –
ATTCATAAGTAGTCTG (sugars k3 d10 k3, PS) | 35 | –
ATTCCATCTATCAGAC (sugars k3 d10 k3, PS) | 7 | –
ATTCTACACTAATATT (sugars k3 d10 k3, PS) | 0 | –
ATTCTGTGGCATGGCT (sugars k3 d10 k3, PS) | 69 | –
ATTGGAATGCTACTTG (sugars k3 d10 k3, PS) | 53 | –
ATTGTCTAAACATCTC (sugars k3 d10 k3, PS) | 84 | target mRNA inhibition (0.02 µM): 18%; target mRNA inhibition (0.078 µM): 33%; target mRNA inhibition (0.313 µM): 58%; target mRNA inhibition (1.25 µM): 83%; target mRNA inhibition (5 µM): 94%
ATTTAGAAACTGCTCC (sugars k3 d10 k3, PS) | 21 | –
ATTTAGAGAGCGATAG (sugars k3 d10 k3, PS) | 14 | –
ATTTAGGGCAAACCTT (sugars k3 d10 k3, PS) | 35 | –
ATTTAGTTGGTAGCTT (sugars k3 d10 k3, PS) | 35 | –
ATTTGCTGCATTAATG (sugars k3 d10 k3, PS) | 20 | –
ATTTTCAGATCCCGTT (sugars k3 d10 k3, PS) | 67 | –
CAAAAGACTTTGAGAC (sugars k3 d9 k3 e1, PS) | 13 | –
CAACGCAACAGTTTAG (sugars k3 d10 k3, PS) | 52 | –
CAAGACAGACCAAGTA (sugars k3 d10 k3, PS) | 27 | –
CAAGAGACACCACCAG (sugars k3 d10 k3, PS) | 50 | –
CAAGAGGATAGTCCAT (sugars kkdddddddddkekek, PS) | 22 | –
CAAGAGTTCTTGCAGA (sugars k3 d10 k3, PS) | 17 | –
CAAGCTACCTCCAAAT (sugars k3 d10 k3, PS) | 25 | –
CAAGGAAAAGCCTGAC (sugars k3 d10 k3, PS) | 59 | –

Sequence | target mRNA inhibition (1 µM) [%] | other results
CAATATGGGATGAGGT (sugars k3 d10 k3, PS) | 62 | –
CAATGAGATTACCCCT (sugars k3 d10 k3, PS) | 16 | –
CAATTATGAATCTGCA (sugars k3 d10 k3, PS) | 25 | –
CAATTTACTTTCAGCC (sugars k3 d10 k3, PS) | 71 | target mRNA inhibition (0.02 µM): 0%; target mRNA inhibition (0.078 µM): 18%; target mRNA inhibition (0.313 µM): 37%; target mRNA inhibition (1.25 µM): 76%; target mRNA inhibition (5 µM): 86%
CACAAGTAAGGTAAAG (sugars k3 d9 k3 e1, PS) | 55 | –
CACAAGTAAGGTAAAG (sugars k3 d10 k3, PS) | 54 | –
CACAGAACCAATATGC (sugars k3 d10 k3, PS) | 54 | –
CACATATGTGAAGAGC (sugars k3 d9 k3 e1, PS) | 74 | target mRNA inhibition (0.02 µM): 6%; target mRNA inhibition (0.078 µM): 9%; target mRNA inhibition (0.313 µM): 39%; target mRNA inhibition (1.25 µM): 57%; target mRNA inhibition (5 µM): 78%
CACAUATGTGAAGAGC (sugars k3 d1 m1 d8 k3, PS) | 65 | –
CACCACGATTGTTACA (sugars k3 d10 k3, PS) | 36 | –
CACCGCGCTTATTAAT (sugars k3 d10 k3, PS) | 7 | –
CACCGTTTTGGGCTAA (sugars k3 d1 m1 d8 k3, PS) | 82 | target mRNA inhibition (0.02 µM): 12%; target mRNA inhibition (0.078 µM): 32%; target mRNA inhibition (0.313 µM): 54%; target mRNA inhibition (1.25 µM): 71%; target mRNA inhibition (5 µM): 84%
CACCGTTTTGGGCTAA (sugars k3 d9 k3 e1, PS) | 71 | –
CACCGTTTTGGGCTAA (sugars k3 d10 k3, PS) | 85 | target mRNA inhibition (0.02 µM): 13%; target mRNA inhibition (0.078 µM): 23%; target mRNA inhibition (0.313 µM): 53%; target mRNA inhibition (1.25 µM): 83%; target mRNA inhibition (5 µM): 94%
CACTAATTTAGTCAAC (sugars k3 d10 k3, PS) | 7 | –
CACTGATACATACCAC (sugars k3 d10 k3, PS) | 64 | –
CACTTTGGTATTGTTG (sugars k3 d10 k3, PS) | 53 | –
CACTTTTGGTGGACTT (sugars k3 d10 k3, PS) | 21 | –
CAGAAGTTTTTAAGAG (sugars k3 d10 k3, PS) | 30 | –
CAGAGACATGAGGTTT (sugars k3 d10 k3, PS) | 61 | –
CAGAGTTATTGTAGGG (sugars k3 d10 k3, PS) | 83 | target mRNA inhibition (0.02 µM): 16%; target mRNA inhibition (0.078 µM): 24%; target mRNA inhibition (0.313 µM): 51%; target mRNA inhibition (1.25 µM): 74%; target mRNA inhibition (5 µM): 93%
CAGATTGGAATGCTAC (sugars k3 d9 k3 e1, PS) | 61 | –
